Laboratory results published in the NIST ThermoML archive (doi:10.1021/acs.jced.9b00396).

Conditions: Liquid; for speed of sound: Frequency=3 MHz, Single path-length method; for mass density: Vibrating tube method

CC(=O)OCCC(C)C [3-methylbutyl ethanoate]
Conditions	mass density [kg/m3]	speed of sound [m/s]
293.15 K, 100 kPa	872.9	1213
293.15 K, 500 kPa	874	–
293.15 K, 1000 kPa	874	–
293.15 K, 2500 kPa	875	–
293.15 K, 5000 kPa	877	–
293.15 K, 7500 kPa	879	–
293.15 K, 10000 kPa	881	–
293.15 K, 12500 kPa	883	–
293.15 K, 15000 kPa	885	–
293.15 K, 17500 kPa	887	–
293.15 K, 20000 kPa	889	–
293.15 K, 22500 kPa	891	–
293.15 K, 25000 kPa	893	–
293.15 K, 27500 kPa	895	–
293.15 K, 30000 kPa	896	–
293.15 K, 32500 kPa	898	–
293.15 K, 35000 kPa	899	–
293.15 K, 37500 kPa	901	–
298.15 K, 100 kPa	868	1193
298.15 K, 500 kPa	869	–
298.15 K, 1000 kPa	869	–
298.15 K, 2500 kPa	870	–
298.15 K, 5000 kPa	873	–
298.15 K, 7500 kPa	875	–
298.15 K, 10000 kPa	877	–
298.15 K, 12500 kPa	879	–
298.15 K, 15000 kPa	881	–
298.15 K, 17500 kPa	883	–
298.15 K, 20000 kPa	885	–
298.15 K, 22500 kPa	886	–
298.15 K, 25000 kPa	888	–
298.15 K, 27500 kPa	890	–
298.15 K, 30000 kPa	892	–
298.15 K, 32500 kPa	894	–
298.15 K, 35000 kPa	895	–
298.15 K, 37500 kPa	897	–
313.15 K, 100 kPa	853.3	1132
313.15 K, 500 kPa	854	–
313.15 K, 1000 kPa	854	–
313.15 K, 2500 kPa	856	–
313.15 K, 5000 kPa	858	–
313.15 K, 7500 kPa	861	–
313.15 K, 10000 kPa	863	–
313.15 K, 12500 kPa	865	–
313.15 K, 15000 kPa	867	–
313.15 K, 17500 kPa	869	–
313.15 K, 20000 kPa	871	–
313.15 K, 22500 kPa	873	–
313.15 K, 25000 kPa	875	–
313.15 K, 27500 kPa	877	–
313.15 K, 30000 kPa	879	–
313.15 K, 32500 kPa	881	–
313.15 K, 35000 kPa	883	–
313.15 K, 37500 kPa	885	–
333.15 K, 100 kPa	833.3	1045
333.15 K, 500 kPa	834	–
333.15 K, 1000 kPa	834	–
333.15 K, 2500 kPa	836	–
333.15 K, 5000 kPa	839	–
333.15 K, 7500 kPa	842	–
333.15 K, 10000 kPa	844	–
333.15 K, 12500 kPa	847	–
333.15 K, 15000 kPa	849	–
333.15 K, 17500 kPa	851	–
333.15 K, 20000 kPa	854	–
333.15 K, 22500 kPa	856	–
333.15 K, 25000 kPa	858	–
333.15 K, 27500 kPa	860	–
333.15 K, 30000 kPa	862	–
333.15 K, 32500 kPa	864	–
333.15 K, 35000 kPa	866	–
333.15 K, 37500 kPa	868	–
353.15 K, 500 kPa	814	–
353.15 K, 1000 kPa	814	–
353.15 K, 2500 kPa	816	–
353.15 K, 5000 kPa	819	–
353.15 K, 7500 kPa	823	–
353.15 K, 10000 kPa	825	–
353.15 K, 12500 kPa	828	–
353.15 K, 15000 kPa	831	–
353.15 K, 17500 kPa	834	–
353.15 K, 20000 kPa	836	–
353.15 K, 22500 kPa	839	–
353.15 K, 25000 kPa	841	–
353.15 K, 27500 kPa	843	–
353.15 K, 30000 kPa	846	–
353.15 K, 32500 kPa	848	–
353.15 K, 35000 kPa	850	–
353.15 K, 37500 kPa	852	–
373.15 K, 500 kPa	793	–
373.15 K, 1000 kPa	794	–
373.15 K, 2500 kPa	796	–
373.15 K, 5000 kPa	800	–
373.15 K, 7500 kPa	803	–
373.15 K, 10000 kPa	806	–
373.15 K, 12500 kPa	810	–
373.15 K, 15000 kPa	813	–
373.15 K, 17500 kPa	816	–
373.15 K, 20000 kPa	818	–
373.15 K, 22500 kPa	821	–
373.15 K, 25000 kPa	824	–
373.15 K, 27500 kPa	827	–
373.15 K, 30000 kPa	829	–
373.15 K, 32500 kPa	832	–
373.15 K, 35000 kPa	834	–
373.15 K, 37500 kPa	836	–
393.15 K, 500 kPa	772	–
393.15 K, 1000 kPa	773	–
393.15 K, 2500 kPa	775	–
393.15 K, 5000 kPa	779	–
393.15 K, 7500 kPa	783	–
393.15 K, 10000 kPa	787	–
393.15 K, 12500 kPa	791	–
393.15 K, 15000 kPa	794	–
393.15 K, 17500 kPa	798	–
393.15 K, 20000 kPa	801	–
393.15 K, 22500 kPa	804	–
393.15 K, 25000 kPa	807	–
393.15 K, 27500 kPa	810	–
393.15 K, 30000 kPa	812	–
393.15 K, 32500 kPa	815	–
393.15 K, 35000 kPa	818	–
393.15 K, 37500 kPa	820	–
413.15 K, 500 kPa	750	–
413.15 K, 1000 kPa	751	–
413.15 K, 2500 kPa	754	–
413.15 K, 5000 kPa	759	–
413.15 K, 7500 kPa	763	–
413.15 K, 10000 kPa	768	–
413.15 K, 12500 kPa	772	–
413.15 K, 15000 kPa	776	–
413.15 K, 17500 kPa	779	–
413.15 K, 20000 kPa	783	–
413.15 K, 22500 kPa	786	–
413.15 K, 25000 kPa	790	–
413.15 K, 27500 kPa	793	–
413.15 K, 30000 kPa	796	–
413.15 K, 32500 kPa	799	–
413.15 K, 35000 kPa	802	–
413.15 K, 37500 kPa	805	–
433.15 K, 500 kPa	726	–
433.15 K, 1000 kPa	727	–
433.15 K, 2500 kPa	731	–
433.15 K, 5000 kPa	737	–
433.15 K, 7500 kPa	742	–
433.15 K, 10000 kPa	747	–
433.15 K, 12500 kPa	752	–
433.15 K, 15000 kPa	757	–
433.15 K, 17500 kPa	761	–
433.15 K, 20000 kPa	765	–
433.15 K, 22500 kPa	769	–
433.15 K, 25000 kPa	772	–
433.15 K, 27500 kPa	776	–
433.15 K, 30000 kPa	779	–
433.15 K, 32500 kPa	783	–
433.15 K, 35000 kPa	786	–
433.15 K, 37500 kPa	789	–
453.15 K, 500 kPa	701	–
453.15 K, 1000 kPa	703	–
453.15 K, 2500 kPa	707	–
453.15 K, 5000 kPa	714	–
453.15 K, 7500 kPa	721	–
453.15 K, 10000 kPa	727	–
453.15 K, 12500 kPa	732	–
453.15 K, 15000 kPa	737	–
453.15 K, 17500 kPa	742	–
453.15 K, 20000 kPa	747	–
453.15 K, 22500 kPa	751	–
453.15 K, 25000 kPa	755	–
453.15 K, 27500 kPa	759	–
453.15 K, 30000 kPa	763	–
453.15 K, 32500 kPa	766	–
453.15 K, 35000 kPa	770	–
453.15 K, 37500 kPa	773	–
473.15 K, 500 kPa	674	–
473.15 K, 1000 kPa	676	–
473.15 K, 2500 kPa	682	–
473.15 K, 5000 kPa	691	–
473.15 K, 7500 kPa	698	–
473.15 K, 10000 kPa	705	–
473.15 K, 12500 kPa	712	–
473.15 K, 15000 kPa	717	–
473.15 K, 17500 kPa	723	–
473.15 K, 20000 kPa	728	–
473.15 K, 22500 kPa	733	–
473.15 K, 25000 kPa	738	–
473.15 K, 27500 kPa	742	–
473.15 K, 30000 kPa	746	–
473.15 K, 32500 kPa	750	–
473.15 K, 35000 kPa	754	–
473.15 K, 37500 kPa	757	–
